Test system: angiogenesis (vascular density) in air pouch granuloma
Test: Murine air pouch granuloma model of inflammatory angiogenesis
Assay type: in vivo, mice
Settings: positive control
From the text: C. Measurement of Angiogenesis in vivo—Murine Air Pouch Granuloma Model
The murine airpouch granuloma model of chronic inflammation (Kimura et al., 1985, J. Pharmacobio-Dyn., 8:393–400; Colville-Nash et al., 1995, J. Pharm. and Exp. Ther., 274:1463–1472) whose disclosure is incorporated herein by reference in its entirety, is characterized by inflammatory cell influx, fibrous tissue proliferation and intense angiogenesis. […] In addition, angiogenesis can be accurately quantitated by a vascular casting method.
Day −1, mice are anesthetized using Aerrane (isoflurane) gas (5%) or other approved methods, after which 3 mls of air is injected into the dorsal subcutaneous tissue using a 27 g needle. Mice are allowed to recover. […]
When the granuloma is removed it is weighed and then dried for 3 days at 45° C. and reweighed. […] The carmine content is then determined against a carmine red standard curve (0.5 to 2 mg/ml) generated in extracted tissue from non carmine treated animals and read at 490 nm. Sample and standard values are determined typically using DeltaSoft Elisa analysis software (Biometallics Inc., Princeton, N.J.). […]
The effect of compounds on vascular density is typically measured 6 days after induction of the granuloma. This time point has been determined to be at or near the peak of angiogenesis. […] Medroxyprogesterone has no effect on granuloma size as measured by dry weight.

In the case of medroxyprogesterone, the “maximum reduction (vascular density / vascular index)” value (measured 6 days after induction) is reported as 50% and the “effect on granuloma size as measured by dry weight” value is reported as “no effect”.

Source: patent publication US7005434B2, “Compounds and uses thereof” (SB Corporation, priority 2001, dated 2006)
